Data: US11591323B2, “Muscarinic agonists as non-steroidal and non-opioid analgesics and methods of use thereof” (Barry University, priority 2019, dated 2023)
Where two headings read alike, the source gives them in different places.

Tests used:
Assay type in all cases: cell-based
M4 muscarinic receptor = molecular target: T1, M4 muscarinic receptor (Homo sapiens, UniProt P08173); assay: accumulation of IPX, M4 CHO cells with promiscuous G15 G-protein (M4Gq+G15); parameters: expressed in transfected cells; pCMV/hygro vector, hygromycin selection; settings: for RAi / E′MAX / τ / Δlog(τ/KA): M4 Gq + G15 (↑IPX); for RAi: Table 8, relative to carbachol; for accumulation of IPX: M4 co-transfected with G15, in words; for E′MAX / τ: Table 8; for Δlog(τ/KA): Table 8, to carbachol
T1 sequence (P08173 1-479): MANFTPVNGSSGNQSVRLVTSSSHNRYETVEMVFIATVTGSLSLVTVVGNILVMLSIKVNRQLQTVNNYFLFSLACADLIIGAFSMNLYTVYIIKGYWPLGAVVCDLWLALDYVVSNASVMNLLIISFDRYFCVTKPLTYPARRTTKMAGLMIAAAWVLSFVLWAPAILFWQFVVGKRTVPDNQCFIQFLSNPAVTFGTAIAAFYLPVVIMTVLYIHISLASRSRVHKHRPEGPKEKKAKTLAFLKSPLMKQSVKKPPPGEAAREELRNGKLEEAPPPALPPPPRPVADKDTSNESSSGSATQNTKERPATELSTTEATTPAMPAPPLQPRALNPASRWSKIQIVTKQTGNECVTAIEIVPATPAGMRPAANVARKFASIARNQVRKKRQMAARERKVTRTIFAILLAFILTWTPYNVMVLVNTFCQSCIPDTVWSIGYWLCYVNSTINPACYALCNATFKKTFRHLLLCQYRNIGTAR
Protocol: Since activation of phospholipase C (PLC) via M2 and M4 receptors is weak, cells were transferred with G15 G-protein to facilitate coupling.
(§1) To determine level of cAMP, cells in suspension were pre-incubated for 1 h with 0.4 μM [^3H]adenine, washed, and incubated for 10 min in the presence of isobutylmethylxanthine and 10 μM forskolin. […] Incubation was ended by addition of 0.2 ml of 2.5 M HCl to the samples. Samples were applied to alumina columns (1.5 g of alumina per column), washed with 2 ml ammonium acetate (pH=7.0) and eluted from columns with 4 ml ammonium acetate and measured by liquid scintillation spectrometry. […] The incubation was stopped by addition of 0.5 ml of chloroform methanol HCl mixture (2:1:0.1). After separation of water and organic phases, 0.6 ml of water phase was applied to Dowex columns (1.5 g of Dowex per column), washed by 20 ml of 60 mM ammonium formate/5 mM sodium borate buffer and eluted from columns with 4 ml of 1M ammonium formate/0.1 formic acid buffer and measured by liquid scintillation spectrometry.
(§2) Measurements of the production of cAMP and inositol phosphates: Levels of second messengers cAMP and inositol phosphates were determined in radiochemical chromatography assays as described previously. To determine level of cAMP, cells in suspension were pre-incubated for 1 h with 0.4 μM [^3H]adenine, washed, and incubated for 10 min in the presence of isobutylmethylxanthine and 10 μM forskolin. […] Incubation was ended by addition of 0.2 ml of 2.5 M HCl to the samples. Samples were applied to alumina columns (1.5 g of alumina per column), washed with 2 ml ammonium acetate (pH=7.0) and eluted from columns with 4 ml ammonium acetate and measured by liquid scintillation spectrometry. […] For this purpose, new CHO cell lines stably expressing promiscuous G15 G-protein and M2 or M4 receptor were generated by transfection with pCMV/hygro vector and hygromycin selection. To determine the rate of formation of inositol phosphates IPX, suspended cells were pre-incubated with 0.1 μM [^3H]myo-inositol for 60 min, washed, and incubated with 10 mM LiCl for 15 min. […] The incubation was stopped by addition of 0.5 ml of chloroform methanol HCl mixture (2:1:0.1). After separation of water and organic phases, 0.6 ml of water phase was applied to Dowex columns (1.5 g of Dowex per column), washed by 20 ml of 60 mM ammonium formate/5 mM sodium borate buffer and eluted from columns with 4 ml of 1M ammonium formate/0.1 formic acid buffer and measured by liquid scintillation spectrometry.
(§3) For bi-phasic response, curves were inhibitory and stimulatory phase were fitted separately. Operational Model of Functional Agonism
(§4) [formula] where y is functional response at concentration of tested compound x, EMAX is maximal response of the system, KA is equilibrium dissociation constant and nH is slope factor. Eq. 5 was fitted to data from functional experiments. Eq. 5 was fitted to data by the two-step procedure described earlier. […] In the second step, Eq. 5 with EMAX fixed to the value determined in the first step was fitted to individual experimental data sets. Relative Intrinsic Activity
Muscarinic receptors are also able to stimulate non-preferential signalling pathways.

M3 muscarinic receptor = M3 muscarinic receptor (Homo sapiens, UniProt P20309); assay: accumulation of IPX, M3 CHO cells transfected with G15 (M3Gq+G15); parameters: host or cells: CHO cells
Protocol: as §1, §2, §3, §4

M1 muscarinic receptor = molecular target: T2, M1 muscarinic receptor (Homo sapiens, UniProt P11229); assay: accumulation of IPX, M1 CHO cells transfected with G15 (M1Gq+G15); parameters: host or cells: CHO cells
T2 sequence (P11229 1-460): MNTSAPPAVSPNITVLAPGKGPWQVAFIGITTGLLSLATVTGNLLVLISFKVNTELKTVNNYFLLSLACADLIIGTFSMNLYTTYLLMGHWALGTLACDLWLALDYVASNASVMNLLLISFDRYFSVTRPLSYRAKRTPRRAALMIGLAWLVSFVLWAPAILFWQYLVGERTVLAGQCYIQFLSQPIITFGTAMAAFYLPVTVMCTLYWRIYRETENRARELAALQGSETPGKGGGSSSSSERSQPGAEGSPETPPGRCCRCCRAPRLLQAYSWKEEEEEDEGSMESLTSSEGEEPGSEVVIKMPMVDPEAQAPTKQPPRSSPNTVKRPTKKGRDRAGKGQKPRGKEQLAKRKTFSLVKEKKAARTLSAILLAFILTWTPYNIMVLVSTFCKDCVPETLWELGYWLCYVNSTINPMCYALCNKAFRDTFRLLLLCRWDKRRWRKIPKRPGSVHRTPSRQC
Protocol: as §1, §2, §3, §4

[1] = M3Gq + G15 (↑IPX), Table 8, relative to carbachol
[2] = M3Gq + G15 (↑IPX), Table 8, to carbachol
[3] = M3Gq + G15 (↑IPX), Table 8, read-out: pEC50 (converted)
[4] = M3Gq + G15 (↑IPX), Table 8, read-out: pKA (converted)
[5] = M1Gq + G15 (↑IPX), Table 8, relative to carbachol
[6] = M1Gq + G15 (↑IPX), Table 8, to carbachol
[7] = M1Gq + G15 (↑IPX), Table 8, read-out: pEC50 (converted)
[8] = M1Gq + G15 (↑IPX), Table 8, read-out: pKA (converted)

Sequence of M3 muscarinic receptor (P20309 whole entry): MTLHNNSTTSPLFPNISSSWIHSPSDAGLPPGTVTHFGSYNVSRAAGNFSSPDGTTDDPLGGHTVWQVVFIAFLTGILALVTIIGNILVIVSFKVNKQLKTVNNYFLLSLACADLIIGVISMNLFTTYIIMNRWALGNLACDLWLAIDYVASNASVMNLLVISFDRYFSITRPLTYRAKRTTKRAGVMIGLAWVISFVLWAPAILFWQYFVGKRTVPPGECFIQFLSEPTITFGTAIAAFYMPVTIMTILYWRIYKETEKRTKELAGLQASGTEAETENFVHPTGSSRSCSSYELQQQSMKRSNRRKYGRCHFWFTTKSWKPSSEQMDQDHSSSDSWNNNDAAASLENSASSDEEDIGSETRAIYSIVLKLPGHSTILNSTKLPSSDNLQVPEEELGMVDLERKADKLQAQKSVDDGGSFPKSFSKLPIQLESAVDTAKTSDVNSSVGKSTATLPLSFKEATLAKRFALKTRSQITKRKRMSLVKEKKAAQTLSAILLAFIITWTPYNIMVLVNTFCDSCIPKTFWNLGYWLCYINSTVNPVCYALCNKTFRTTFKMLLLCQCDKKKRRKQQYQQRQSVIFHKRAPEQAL

C1=CCN(Cc2cccs2)CC1.Cl [Compound 6A, 1-[(thiophen-2-yl)methyl]-1,2,3,6-tetrahydropyridin-1-ium chloride]
RAi (M4 muscarinic receptor): 0 | accumulation of IPX (M4 muscarinic receptor): did not stimulate IPX accumulation | E′MAX (M3 muscarinic receptor; M3Gq + G15 (↑IPX), Table 8): 2.5 ± 0.2 fold over basal | τ (M3 muscarinic receptor; M3Gq + G15 (↑IPX), Table 8): 0.06 ± 0.01 | RAi (M3 muscarinic receptor; [1]): 0.0058 ± 0.0005 | Δlog(τ/KA) (M3 muscarinic receptor; [2]): 2.23 ± 0.23 | EC50 (M3 muscarinic receptor; [3]): 5.01 µM | Kd (M3 muscarinic receptor; [4]): 5.01 µM | E′MAX (M1 muscarinic receptor; M1Gq + G15 (↑IPX), Table 8): 2.0 ± 0.2 fold increase | τ (M1 muscarinic receptor; M1Gq + G15 (↑IPX), Table 8): 0.03 ± 0.01 | RAi (M1 muscarinic receptor; [5]): 0.0010 ± 0.0001 | Δlog(τ/KA) (M1 muscarinic receptor; [6]): 2.98 ± 0.26 | EC50 (M1 muscarinic receptor; [7]): 7.94 µM | Kd (M1 muscarinic receptor; [8]): 7.94 µM

C[N+](C)(C)CCOC(N)=O [carbachol, reference compound]
E′MAX (M4 muscarinic receptor): 4.5 ± 0.3 fold over basal | τ (M4 muscarinic receptor): 4.8 ± 0.5 | Δlog(τ/KA) (M4 muscarinic receptor): 0 | accumulation of IPX (M4 muscarinic receptor): stimulated accumulation of IPX

C[N+]1(Cc2cccs2)CC=CCC1.[I-] (stereo not drawn) [Compound 7A, 1-methyl-1-[(thiophen-2-yl)methyl]-1,2,3,6-tetrahydropyridin-1-ium iodide]
RAi (M4 muscarinic receptor): 0 | accumulation of IPX (M4 muscarinic receptor): did not stimulate IPX accumulation | E′MAX (M3 muscarinic receptor; M3Gq + G15 (↑IPX), Table 8): 3.0 ± 0.3 fold over basal | τ (M3 muscarinic receptor; M3Gq + G15 (↑IPX), Table 8): 0.08 ± 0.01 | RAi (M3 muscarinic receptor; [1]): 0.011 ± 0.001 | Δlog(τ/KA) (M3 muscarinic receptor; [2]): 1.94 ± 0.20 | EC50 (M3 muscarinic receptor; [3]): 3.16 µM | Kd (M3 muscarinic receptor; [4]): 3.16 µM | E′MAX (M1 muscarinic receptor; M1Gq + G15 (↑IPX), Table 8): 4.6 ± 0.4 fold increase | τ (M1 muscarinic receptor; M1Gq + G15 (↑IPX), Table 8): 0.12 ± 0.01 | RAi (M1 muscarinic receptor; [5]): 0.0111 ± 0.0002 | Δlog(τ/KA) (M1 muscarinic receptor; [6]): 1.96 ± 0.16 | EC50 (M1 muscarinic receptor; [7]): 2.63 µM | Kd (M1 muscarinic receptor; [8]): 3.16 µM

O=C1CCCN1CC#CCN1CCCC1 [oxotremorine, reference compound]
E′MAX (M4 muscarinic receptor): 4.0 ± 0.3 fold over basal | τ (M4 muscarinic receptor): 2.5 ± 0.2 | RAi (M4 muscarinic receptor): 3.50 ± 0.33 | Δlog(τ/KA) (M4 muscarinic receptor): −0.54 | EC50 (M3 muscarinic receptor): 0.1 µM | E′MAX (M3 muscarinic receptor): 22 ± 2 fold over basal | Kd (M3 muscarinic receptor): 0.398 µM | RAi (M3 muscarinic receptor): 4.14 ± 0.38 | Δlog(τ/KA) (M3 muscarinic receptor): −0.62 ± 0.06 | τ (M3 muscarinic receptor): 2.9 ± 0.3 | EC50 (M1 muscarinic receptor): 0.0525 µM | E′MAX (M1 muscarinic receptor): 25 ± 2 fold increase | Kd (M1 muscarinic receptor): 0.2 µM | RAi (M1 muscarinic receptor): 3.71 ± 0.29 | Δlog(τ/KA) (M1 muscarinic receptor): −0.57 ± 0.06 | τ (M1 muscarinic receptor): 2.6 ± 0.3
